Experimental data published in US8076338B2, “Kinase modulators and methods of use” (Exelixis, Inc., priority 2004, dated 2011).
Read-outs that look alike come from different tables or passages of the source.

Assays:
[1] = target: AktK (Homo sapiens, UniProt P31749); assay: Luciferase-coupled chemiluminescence kinase assay (ATP consumption); type: biochemical; conditions: read-out: AKT-1 IC50
Procedure: (§1) One measure of inhibition is Ki. […] The Ki for a compound is determined from the IC50 based on three assumptions. First, only one compound molecule binds to the enzyme and there is no cooperativity. […] Third, the enzymatic rate of the enzyme-inhibitor complex is zero. The rate data (i.e. compound concentration) are fitted to the equation: […]
(§2) Luciferase-Coupled Chemiluminescence Assay Protocol
(§3) Kinase activity is measured as the percent of ATP consumed following the kinase reaction using luciferase-luciferin-coupled chemiluminescence. Reactions were conducted in 384-well white, medium binding microtiter plates (Greiner). Kinase reactions were initiated by combining test compounds, ATP and kinase in a 20 uL volume. The reaction mixture was incubated at ambient temperature for 3 hrs. For p70S6K and/or AktK, 2.5-5 nM of the enzyme was pre-incubated with compound in 20 mM Tris pH 7.5, 10 mM MgCl2, 0.03% TX-100, and 1 mM DTT for 30 minutes at room temperature. Following the kinase reaction, a 20 μL aliquot of luciferase-luciferin mix was added and the chemiluminescence signal measured using a Victor^2 plate reader (Perkin Elmer). The luciferase-luciferin mix contained 50 mM HEPES, pH 7.8, 67 mM oxalic acid (pH 7.8), 5 (or 50) mM DTT, 0.4% Triton X-100, 0.25 mg/mL coenzyme A, 63 μM AMP, 28 μg/1 mL luciferin and 40,000 units/mL luciferase. Total ATP consumption was limited to 25-60% and the IC50 values correlate well with those determined by radiometric assays.

[2] = target: p70S6K (Homo sapiens, UniProt P23443); assay: as above; type: biochemical
Sequence of p70S6K (P23443 whole entry): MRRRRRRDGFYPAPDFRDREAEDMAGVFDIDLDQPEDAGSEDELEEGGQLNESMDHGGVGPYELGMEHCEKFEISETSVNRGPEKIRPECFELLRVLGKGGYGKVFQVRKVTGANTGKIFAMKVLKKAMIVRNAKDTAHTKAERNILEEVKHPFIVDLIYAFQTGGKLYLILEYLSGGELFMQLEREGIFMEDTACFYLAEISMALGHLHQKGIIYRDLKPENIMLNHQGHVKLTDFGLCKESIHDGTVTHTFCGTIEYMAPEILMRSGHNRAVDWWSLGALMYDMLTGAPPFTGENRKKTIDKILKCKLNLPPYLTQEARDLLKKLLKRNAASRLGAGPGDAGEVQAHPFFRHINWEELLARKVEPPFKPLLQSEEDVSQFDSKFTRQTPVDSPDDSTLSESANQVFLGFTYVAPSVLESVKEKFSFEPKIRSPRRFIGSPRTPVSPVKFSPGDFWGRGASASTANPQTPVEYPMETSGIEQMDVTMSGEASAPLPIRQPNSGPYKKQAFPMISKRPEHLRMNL
Procedure: as §1, §2, §3

Sequence of AktK (P31749 whole entry): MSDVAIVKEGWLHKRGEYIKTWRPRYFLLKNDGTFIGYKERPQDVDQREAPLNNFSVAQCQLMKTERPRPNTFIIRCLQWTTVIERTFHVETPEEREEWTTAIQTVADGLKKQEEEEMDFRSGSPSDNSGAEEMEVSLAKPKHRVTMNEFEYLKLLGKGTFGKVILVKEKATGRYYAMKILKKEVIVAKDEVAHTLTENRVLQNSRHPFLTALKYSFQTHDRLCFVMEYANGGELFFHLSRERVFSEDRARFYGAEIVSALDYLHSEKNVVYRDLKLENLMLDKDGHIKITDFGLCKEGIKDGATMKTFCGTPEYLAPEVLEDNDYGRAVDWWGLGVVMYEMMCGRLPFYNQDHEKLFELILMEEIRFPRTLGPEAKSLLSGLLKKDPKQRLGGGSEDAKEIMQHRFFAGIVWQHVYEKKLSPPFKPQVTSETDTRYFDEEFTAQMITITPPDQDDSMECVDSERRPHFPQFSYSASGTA

Row | IC50 ([1]; Table 1, class symbols per key) | IC50 ([2]; Table 1, class symbols per key) | IC50 [1] | IC50 [2] | Compound
1 | 100 to 1000 nM | < 100 nM | – | – | Cc1c(NCCN2CCCC2)cc(CO)cc1N1CCN(c2ncnc3[nH]nc(Br)c23)CC1 [Entry 268, {3-[4-(3-bromo-1H-pyrazolo[3,4-d]pyrimidin-4-yl)piperazin-1-yl]-4-methyl-5-[(2-pyrrolidin-1-ylethyl)amino]phenyl}methanol]
2 | – | – | ≥ 10000 nM | 100 to 1000 nM | FC(F)(F)c1cccc(N2CCN(c3ncnc4[nH]ccc34)CC2)c1 [Entry 305, 4-{4-[3-(trifluoromethyl)phenyl]piperazin-1-yl}-7H-pyrrolo[2,3-d]pyrimidine]
3 | < 100 nM | < 100 nM | – | – | COC(=O)c1ccc(C)c(N2CCN(c3ncnc4[nH]nc(Br)c34)CC2)c1 [Entry 179, methyl 3-[4-(3-bromo-1H-pyrazolo[3,4-d]py-rimidin-4-yl)piperazin-1-yl]-4-methylbenzoate]
4 | – | – | < 100 nM | < 100 nM | Fc1ccc(-c2ccc(Cl)c(N3CCN(c4ncnc5[nH]nc(Br)c45)CC3)c2)c(OCCN2CCCC2)c1 [Entry 289, 3-bromo-4-(4-{4-chloro-4′-fluoro-2′-[(2-pyrrolidin-1-ylethyl)oxy]biphenyl-3-yl}piperazin-1-yl)-1H-pyrazolo[3,4-d]pyrimidine]
5 | < 100 nM | < 100 nM | – | – | Brc1cc(NCCN2CCCC2)cc(N2CCN(c3ncnc4[nH]nc(Br)c34)CC2)c1 [Entry 265, 3-bromo-5-[4-(3-bromo-1H-pyrazolo[3,4-d]pyrimi-din-4-yl)piperazin-1-yl]-N-(2-pyrrolidin-1-ylethyl)aniline]
6 | 1000 to 10000 nM | 100 to 1000 nM | – | – | CCc1n[nH]c2ncnc(N3CCN(c4cccc(OCCN(CC)CC)c4C)CC3)c12 [Entry 32, N,N-diethyl-2-({3-[4-(3-ethyl-1H-pyrazolo[3,4-d]pyrimidin-4-yl)piperazin-1-yl]-2-methylphenyl}oxy)ethanamine]
7 | – | – | 1000 to 10000 nM | 1000 to 10000 nM | Cc1ccc(Cl)cc1N1CCN(c2nc(-c3ccccc3)nc3[nH]nc(C)c23)CC1 [Entry 322, 4-[4-(5-chloro-2-methylphenyl)piperazin-1-yl]-3-methyl-6-phenyl-1H-pyrazolo[3,4-d]pyrimidine]
8 | – | – | 100 to 1000 nM | < 100 nM | Cc1ccc(Cl)cc1N1CCN(c2ncnc3[nH]nc(C#CCO)c23)CC1 [Entry 393, 3-{4-[4-(5-chloro-2-methylphenyl)piperazin-1-yl]-1H-pyrazolo[3,4-d]pyrimidin-3-yl}prop-2-yn-1-ol]
9 | < 100 nM | < 100 nM | – | – | Cc1c(NCCN(C)C(C)C)cc(Cl)cc1N1CCN(c2ncnc3[nH]nc(Br)c23)CC1 [Entry 193, N′-{3-[4-(3-bromo-1H-pyrazolo[3,4-d]pyrimidin-4-yl)piperazin-1-yl]-5-chloro-2-methylphenyl}-N-methyl-N-(1-methylethyl)ethane-1,2-diamine]
10 | – | – | ≥ 10000 nM | 1000 to 10000 nM | CCc1n[nH]c2ncnc(N3CCN(c4ccc(OCCN5CCCCC5)c(Cl)c4)CC3)c12 [Entry 350, 4-(4-{3-chloro-4-[(2-piperidin-1-ylethyl)oxy]phe-nyl}piperazin-1-yl)-3-ethyl-1H-pyrazolo[3,4-d]pyrimidine]
11 | – | – | 1000 to 10000 nM | 1000 to 10000 nM | Cc1ccc(Cl)cc1N1CCN(c2ncnc3[nH]nc(-c4ccc(OCCCN(C)C)cc4)c23)CC1 [Entry 380, 3-[(4-{4-[4-(5-chloro-2-methylphenyl)piperazin-1-yl]-1H-pyrazolo[3,4-d]pyrimidin-3-yl}phenyl)oxy]-N,N-dimethylpropan-1-amine]
12 | – | – | 1000 to 10000 nM | 1000 to 10000 nM | CCN(CC)CCCc1n[nH]c2ncnc(N3CCN(c4cc(Cl)ccc4C)CC3)c12 [Entry 399, 3-{4-[4-(5-chloro-2-methylphenyl)piperazin-1-yl]-1H-pyrazolo[3,4-d]pyrimidin-3-yl}-N,N-diethylpropan-1-amine]
13 | ≥ 10000 nM | 1000 to 10000 nM | – | – | CCc1n[nH]c2ncnc(N3CCN(c4ncnc5cc(OC)c(OC)cc45)CC3)c12 [Entry 169, 4-[4-(3-ethyl-1H-pyrazolo[3,4-d]pyrimidin-4-yl)piperazin-1-yl]-6,7-bis(methyloxy)quinazoline]
14 | ≥ 10000 nM | 100 to 1000 nM | – | – | Clc1cc(Cl)cc(N2CCN(c3ncnc4[nH]nc(Br)c34)CC2)c1 [Entry 128, 3-bromo-4-[4-(3,5-dichlorophenyl)piperazin-1-yl]-1H-pyrazolo[3,4-d]pyrimidine]
15 | ≥ 10000 nM | 100 to 1000 nM | – | – | N#Cc1nccnc1N1CCN(c2ncnc3[nH]nc(Br)c23)CC1 [Entry 110, 3-[4-(3-bromo-1H-pyrazolo[3,4-d]pyrimidin-4-yl)piperazin-1-yl]pyrazine-2-carbonitrile]
16 | 1000 to 10000 nM | < 100 nM | – | – | COc1cc(OC)cc(N2CCN(c3ncnc4[nH]nc(Br)c34)CC2)c1 [Entry 80, 4-{4-[3,5-bis(methyloxy)phenyl]piperazin-1-yl}-3-bromo-1H-pyrazolo[3,4-d]pyrimidine]
17 | – | – | – | 1000 to 10000 nM | CCc1n[nH]c2ncnc(N3CCN(c4cccc(Cl)c4)CC3C(=O)NC)c12 (centres unmarked) [Entry 362, 4-(3-chlorophenyl)-1-(3-ethyl-1H-pyrazolo[3,4-d]pyrimidin-4-yl)-N-methylpiperazine-2-carboxamide]
18 | – | – | – | < 100 nM | Cc1ccccc1N1CCN(c2ncnc3[nH]nc(C)c23)CC1 [Entry 319, 3-methyl-4-[4-(2-methylphenyl)piperazin-1-yl]-1H-pyrazolo[3,4-d]pyrimidine]
19 | – | – | – | 100 to 1000 nM | Cc1ccc(Cl)cc1N1CCN(c2ncnc3[nH]nc(-c4ccc(OCC5CCNCC5)cc4)c23)CC1 [Entry 359, 4-[4-(5-chloro-2-methylphenyl)piperazin-1-yl]-3-{4-[(piperidin-4-ylmethyl)oxy]phenyl}-1H-pyrazolo[3,4-d]pyrimidine]
20 | – | – | – | < 100 nM | CC(C)=CCc1n[nH]c2ncnc(N3CCN(c4cc(Cl)ccc4C)CC3)c12 [Entry 347, 4-[4-(5-chloro-2-methylphenyl)piperazin-1-yl]-3-(3-methylbut-2-en-1-yl)-1H-pyrazolo[3,4-d]pyrimidine]

Row | Compound | IC50 ([1]; Table 1, class symbols per key) | IC50 ([2]; Table 1, class symbols per key) | IC50 [1] | IC50 [2]
21 | Cc1c(NCCN2CCCC2)cc(C#Cc2ccccc2)cc1N1CCN(c2ncnc3[nH]nc(Br)c23)CC1 [Entry 235, 3-[4-(3-bromo-1H-pyrazolo[3,4-d]pyrimidin-4-yl)piperazin-1-yl]-2-methyl-5-(phenylethynyl)-N-(2-pyrrolidin-1-ylethyl)aniline] | 100 to 1000 nM | < 100 nM | – | –
22 | Cc1c(NCCN2CCCC2)cc(F)cc1N1CCN(c2ncnc3[nH]nc(Br)c23)CC1 [Entry 58, 3-[4-(3-bromo-1H-pyrazolo[3,4-d]pyrimidin-4-yl)piperazin-1-yl]-5-fluoro-2-methyl-N-(2-pyrrolidin-1-ylethyl)aniline] | 100 to 1000 nM | < 100 nM | – | –
23 | Cc1c(NCCN2CCCC2)cc(-c2nccs2)cc1N1CCN(c2ncnc3[nH]nc(Br)c23)CC1 [Entry 233, 3-[4-(3-bromo-1H-pyrazolo[3,4-d]pyrimidin-4-yl)piperazin-1-yl]-2-methyl-N-(2-pyrrolidin-1-ylethyl)-5-(1,3-thiazol-2-yl)aniline] | < 100 nM | < 100 nM | – | –
24 | CCc1n[nH]c2ncnc(N3CCN(c4cc(Cl)cc(CN(C)C)c4OC)CC3)c12 [Entry 377, 1-[5-chloro-3-[4-(3-ethyl-1H-pyrazolo[3,4-d]pyrimidin-4-yl)piperazin-1-yl]-2-(methyloxy)phenyl]-N,N-dimethylmethanamine] | – | – | ≥ 10000 nM | 100 to 1000 nM
